Measured values: patent US20230033224A1, “CICLESONIDE FOR AMELIORATING QUALITY OF LIFE (QOL) IN EQUINES” (Boehringer Ingelheim Vetmedica GmbH, priority 2020, published 2023)

Test system: client-owned horses
Experiment: Owner assessment of change in quality of life (QOL) in a randomized, double-blinded, placebo-controlled clinical study
Format: in vivo, horse
Source text: The amelioration of the QOL in equines can be measured by an assessment, which can be performed for example by the owner or the veterinarian or by an animal care taker or by any other person, preferably by the owner. The owners of the horses are asked to assess the quality of life of their horses over a certain period of time, e.g. several days, such as 10, 14 or 21 days, compared to a reference time point, e.g. day 0. For assessment of QOL the owner is asked to consider certain QOL parameters such as attitude, energy level, human interactions, general behavior using a rating scheme. This assessment preferably relates to a certain period of time such as for example the last 24 hours in comparison to a previous point in time for example day 0. One possible rating scheme is to ask whether QOL has improved, stayed the same or worsened compared to day 0.
The study is conducted as a multicenter prospective, randomized, double-blinded, placebo-controlled clinical study with parallel group design according to Good Clinical Practice (GCP) guidelines with client-owned horses.
Horses are examined before (Day 0) and at the end of treatment with the study drug (Day 10±1) by the study investigators. Physical examination, efficacy and QOL assessment, as well as blood sample collection is performed during the visits. The owners of included horses are also contacted by telephone on Day 5. […]

SMILES: CC(C)C(=O)OCC(=O)[C@@]12O[C@H](C3CCCCC3)OC1CC1C3CCC4=CC(=O)C=C[C@]4(C)C3[C@@H](O)C[C@@]12C (stereo partly drawn) [ciclosenide, (1 ip,16a)-16,17-[[(R)-Cyclohexylmethylene]bis(oxy)]-11-hydroxy-21-(2-methyl-1-oxopropoxy)pregna-1,4-diene-3,20-dione]
- percentage of owners acknowledging an improvement in their horse's quality of life compared to Day 0 (after 10(±1) days of treatment, 8 actuations twice daily for 5 days, then 12 actuations once daily for 5 days): 69.33%
- percentage of owners reporting that the quality of life of their horse improved compared to Day 0 (after five days of treatment, inhaled via EquiHaler, 8 actuations (343 μg each) twice daily): 60.19%
